From patent US20150105252A1, “SUBSTITUTED PYRAZOLES AS HERBICIDES” (E I DU PONT DE NEMOURS AND COMPANY, priority 2013, published 2015)

Assays:
canarygrass = assay: Test D postemergence; assay type: in vivo, Phalaris minor; details: scale 0 to 100
Excerpt: (§1) Seeds of plant species selected from bluegrass (annual bluegrass, Poa annua), blackgrass (Alopecurus myosuroides), canarygrass (littleseed canarygrass, Phalaris minor), chickweed (common chickweed, Stellaria media), galium (catchweed bedstraw, Galium aparine), bromegrass, downy (downy bromegrass, Bromus tectorum), field poppy (Papaver rhoeas), field violet (Viola arvensis), foxtail, green (green foxtail, Setaria viridis), deadnettle (henbit deadnettle, Lamium amplexicaule), ryegrass, Italian (Italian ryegrass, Lolium multiflorum), kochia (Kochia scoparia), lambsquarters (Chenopodium album), oilseed rape (Brassica napus), pigweed (redroot pigweed, Amaranthus retroflexus), chamomile (scentless chamomile, Matricaria inodora), speedwell (bird's-eye speedwell, Veronica persica), barley, spring (spring barley, Hordeum vulgare), wheat, spring (spring wheat, Triticum aestivum), buckwheat, wild (wild buckwheat, Polygonum convolvulus), mustard, wild (wild mustard, Sinapis arvensis), oat, wild (wild oat, Avena fatua), radish, wild (wild radish, Raphanus raphanistrum), windgrass (Apera spica-venti), Russian thistle (Salsola kali), barley, winter (winter barley, Hordeum vulgare), and wheat, winter (winter wheat, Triticum aestivum) were planted into a silt loam soil and treated preemergence with test chemicals formulated in a non-phytotoxic solvent mixture which included a surfactant.
(§2) At the same time, these species were planted in pots containing Redi-Earth® planting medium (Scotts Company, 14111 Scottslawn Road, Marysville, Ohio 43041) comprising spaghnum peat moss, vermiculite, wetting agent and starter nutrients and treated with postemergence applications of the test chemicals formulated in the same manner. Plants ranged in height from 2 to 18 cm (1- to 4-leaf stage). Treated plants and controls were maintained in a controlled growth environment for 14 to 21 days after which time all species were compared to controls and visually evaluated. Plant response ratings, summarized in Table D, are based on a scale of 0 to 100 where 0 is no effect and 100 is complete control. A dash (-) response means no test result.

chamomile = assay: Test D preemergence; assay type: in vivo, Matricaria inodora; details: for Plant response rating, Chamomile: Preemergence, scale 0 to 100
Excerpt: as §1, §2

mustard, wild [1] = assay: Test D postemergence; assay type: in vivo, Sinapis arvensis; details: scale 0 to 100
Excerpt: as §1, §2

ryegrass, Italian = assay: Test D postemergence; assay type: in vivo, Lolium multiflorum; details: scale 0 to 100
Procedure, shortened: (§3)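 Formulation was a non-phytotoxic solvent mixture plus surfactant, applied either to soil at planting (silt loam, preemergence) or to foliage of 2–18 cm plants (postemergence). Visual evaluation versus controls followed at 14–21 days, scored 0–100.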

barley, winter = assay: Test D preemergence; assay type: in vivo, Hordeum vulgare; details: for Plant response rating, Barley, Winter: Preemergence, scale 0 to 100
Excerpt: as §1, §2

barley, spring = assay: Test D preemergence; assay type: in vivo, Hordeum vulgare; details: for Plant response rating, Barley, Spring: Preemergence, scale 0 to 100
Excerpt: as §1, §2

bromegrass, downy = assay: Test D postemergence; assay type: in vivo, Bromus tectorum; details: scale 0 to 100
Excerpt: as §1, §2

oat, wild [2] = assay: Test D postemergence; assay type: in vivo, Avena fatua; details: scale 0 to 100
Excerpt: as §1, §2

field violet = assay: Test D preemergence; assay type: in vivo, Viola arvensis; details: for Plant response rating, Field Violet: Preemergence, scale 0 to 100
Excerpt: as §1, §2

foxtail, green = assay: Test D postemergence; assay type: in vivo, Setaria viridis; details: scale 0 to 100
Excerpt: as §1, §2

lambsquarters [3] = assay: Test D postemergence; assay type: in vivo, Chenopodium album; details: scale 0 to 100
Excerpt: as §1, §2

oat, wild [4] = assay: Test D preemergence; assay type: in vivo, Avena fatua; details: for Plant response rating, Oat, Wild: Preemergence, scale 0 to 100
Procedure, shortened: as §3

kochia [5] = assay: Test D preemergence; assay type: in vivo, Kochia scoparia; details: for Plant response rating, Kochia: Preemergence, scale 0 to 100
Procedure, shortened: as §3

mustard, wild [6] = assay: Test D preemergence; assay type: in vivo, Sinapis arvensis; details: for Plant response rating, Mustard, Wild: Preemergence, scale 0 to 100
Excerpt: as §1, §2

pigweed = assay: Test D preemergence; assay type: in vivo, Amaranthus retroflexus; details: for Plant response rating, Pigweed: Preemergence, scale 0 to 100
Excerpt: as §1, §2

kochia [7] = assay: Test D postemergence; assay type: in vivo, Kochia scoparia; details: scale 0 to 100
Procedure, shortened: as §3

buckwheat, wild = assay: Test D postemergence; assay type: in vivo, Polygonum convolvulus; details: scale 0 to 100
Excerpt: as §1, §2

lambsquarters [8] = assay: Test D preemergence; assay type: in vivo, Chenopodium album; details: for Plant response rating, Lambsquarters: Preemergence, scale 0 to 100
Procedure, shortened: as §3

bluegrass = assay: Test D preemergence; assay type: in vivo, Poa annua; details: for Plant response rating, Bluegrass: Preemergence, scale 0 to 100
Excerpt: as §1, §2

galium = assay: Test D postemergence; assay type: in vivo, Galium aparine; details: scale 0 to 100
Excerpt: as §1, §2

[9] = 16 g ai/ha, taken as preemergence

O=C(NC1CC1)c1cc(CCF)n(Cc2ccnc(C(F)(F)F)c2)n1 [Compound 176]
25: Plant response rating, Mustard, Wild (mustard, wild [1]; Postemergence, 16 g ai/ha) | Bromegrass, Downy plant response rating (bromegrass, downy; Postemergence, 31 g ai/ha) | Bromegrass, Downy plant response rating (bromegrass, downy; postemergence, 62 g ai/ha)
30: Bromegrass, Downy plant response rating (bromegrass, downy; Postemergence, 125 g ai/ha) | Plant response rating, Kochia (kochia [7]; Postemergence, 16 g ai/ha) | Plant response rating, Buckwheat, Wild (buckwheat, wild; Postemergence, 16 g ai/ha)
75: Lambsquarters plant response rating (lambsquarters [3]; Postemergence, 125 g ai/ha)
95: Plant response rating, Lambsquarters (lambsquarters [8]; 125 g ai/ha)
90: Plant response rating, Mustard, Wild (mustard, wild [6]; 62 g ai/ha)
0: Plant response rating (scale 0 to 100), Barley, Winter (barley, winter; [9]) | Plant response rating, Barley, Winter (barley, winter; 31 g ai/ha) | Plant response rating, Barley, Winter (barley, winter; 62 g ai/ha) | Plant response rating, Barley, Winter (barley, winter; 125 g ai/ha) | Plant response rating (scale 0 to 100), Barley, Spring (barley, spring; 16 g ai/ha, taken as preemergence, 0 = no effect, 100 = complete control) | Plant response rating, Barley, Spring (barley, spring; 31 g ai/ha) | Plant response rating, Barley, Spring (barley, spring; 62 g ai/ha) | Plant response rating, Barley, Spring (barley, spring; 125 g ai/ha) | Plant response rating (scale 0 to 100), Field Violet (field violet; [9]) | Plant response rating (scale 0 to 100), Oat, Wild (oat, wild [4]; [9]) | Plant response rating (scale 0 to 100), Lambsquarters (lambsquarters [8]; [9]) | Plant response rating (scale 0 to 100), Bluegrass (bluegrass; [9]) | Plant response rating, Bluegrass (bluegrass; 31 g ai/ha)
70: Mustard, Wild plant response rating (mustard, wild [1]; Postemergence, 125 g ai/ha) | Kochia plant response rating (kochia [7]; Postemergence, 125 g ai/ha)
55: Mustard, Wild plant response rating (mustard, wild [1]; Postemergence, 31 g ai/ha) | Mustard, Wild plant response rating (mustard, wild [1]; postemergence, 62 g ai/ha) | Plant response rating, Lambsquarters (lambsquarters [3]; Postemergence, 16 g ai/ha) | Buckwheat, Wild plant response rating (buckwheat, wild; Postemergence, 31 g ai/ha) | Buckwheat, Wild plant response rating (buckwheat, wild; postemergence, 62 g ai/ha) | Plant response rating, Galium (galium; Postemergence, 16 g ai/ha)
50: Plant response rating, Chamomile (chamomile; 125 g ai/ha) | Plant response rating, Field Violet (field violet; 62 g ai/ha)
40: Plant response rating, Oat, Wild (oat, wild [4]; 125 g ai/ha) | Plant response rating, Pigweed (pigweed; 62 g ai/ha)
35: Foxtail, Green plant response rating (foxtail, green; Postemergence, 125 g ai/ha)
5: Plant response rating, Canarygrass (canarygrass; Postemergence, 16 g ai/ha) | Plant response rating (scale 0 to 100), Chamomile (chamomile; [9]) | Plant response rating, Chamomile (chamomile; 31 g ai/ha) | Plant response rating, Ryegrass, Italian (ryegrass, Italian; Postemergence, 16 g ai/ha) | Ryegrass, Italian plant response rating (ryegrass, Italian; Postemergence, 31 g ai/ha) | Ryegrass, Italian plant response rating (ryegrass, Italian; postemergence, 62 g ai/ha) | Plant response rating, Oat, Wild (oat, wild [2]; Postemergence, 16 g ai/ha) | Plant response rating (scale 0 to 100), Kochia (kochia [5]; [9])
20: Canarygrass plant response rating (canarygrass; Postemergence, 125 g ai/ha) | Oat, Wild plant response rating (oat, wild [2]; Postemergence, 125 g ai/ha) | Foxtail, Green plant response rating (foxtail, green; Postemergence, 31 g ai/ha) | Foxtail, Green plant response rating (foxtail, green; postemergence, 62 g ai/ha) | Plant response rating, Bluegrass (bluegrass; 125 g ai/ha)
15: Canarygrass plant response rating (canarygrass; Postemergence, 31 g ai/ha) | Canarygrass plant response rating (canarygrass; postemergence, 62 g ai/ha) | Oat, Wild plant response rating (oat, wild [2]; Postemergence, 31 g ai/ha) | Oat, Wild plant response rating (oat, wild [2]; postemergence, 62 g ai/ha)
100: Plant response rating, Kochia (kochia [5]; 125 g ai/ha) | Plant response rating, Mustard, Wild (mustard, wild [6]; 125 g ai/ha) | Plant response rating, Pigweed (pigweed; 125 g ai/ha)
10: Plant response rating, Chamomile (chamomile; 62 g ai/ha) | Ryegrass, Italian plant response rating (ryegrass, Italian; Postemergence, 125 g ai/ha) | Plant response rating, Bromegrass, Downy (bromegrass, downy; Postemergence, 16 g ai/ha) | Plant response rating, Foxtail, Green (foxtail, green; Postemergence, 16 g ai/ha) | Plant response rating, Oat, Wild (oat, wild [4]; 62 g ai/ha) | Plant response rating (scale 0 to 100), Mustard, Wild (mustard, wild [6]; [9]) | Plant response rating (scale 0 to 100), Pigweed (pigweed; [9]) | Plant response rating, Bluegrass (bluegrass; 62 g ai/ha)
65: Plant response rating, Field Violet (field violet; 125 g ai/ha) | Kochia plant response rating (kochia [7]; Postemergence, 31 g ai/ha) | Kochia plant response rating (kochia [7]; postemergence, 62 g ai/ha) | Buckwheat, Wild plant response rating (buckwheat, wild; Postemergence, 125 g ai/ha) | Plant response rating, Lambsquarters (lambsquarters [8]; 62 g ai/ha) | Galium plant response rating (galium; Postemergence, 31 g ai/ha) | Galium plant response rating (galium; Postemergence, 125 g ai/ha) | Galium plant response rating (galium; postemergence, 62 g ai/ha)
60: Lambsquarters plant response rating (lambsquarters [3]; Postemergence, 31 g ai/ha) | Lambsquarters plant response rating (lambsquarters [3]; postemergence, 62 g ai/ha)
45: Plant response rating, Kochia (kochia [5]; 62 g ai/ha)
